Data set [1] in a line: AUC (0-6h) in BALB/c mouse at 50 mg/kg, ip. The conditions noted are these: plasma. The format is ADME, organism-based.
The nature of data set [2]: Cmax in BALB/c mouse at 25 mg/kg, ip. Format: ADME, organism-based. As to conditions: in vivo.
A short description of data set [3]: Cmax in BALB/c mouse at 100 mg/kg, ip. The conditions noted are these: in vivo. Format: ADME, organism-based.
The subject of data set [4] is Mus musculus. Kind of data set: Survival of Bacillus anthracis Ames infected BALB/c mouse at 30 mg/kg, ip every 12 hrs for 14 days administered 36 hrs after infection. The format is functional.
The subject of data set [5] is Mus musculus. Kind of data set: Survival of Bacillus anthracis Ames infected BALB/c mouse at 30 mg/kg, ip every 12 hrs for 14 days administered 48 hrs after infection. Format: functional.
Data set [6] is described as follows: Trough level in BALB/c mouse at 25 mg/kg, ip after 6 hrs. The format is ADME, organism-based. As to conditions: in vivo.
Another data set concerns Bacillus anthracis. The experiment in a line: Antimicrobial activity against Bacillus anthracis Ames. The format is functional.
Data set [7] can be described thus: Trough level in BALB/c mouse at 50 mg/kg, ip after 6 hrs. The conditions noted are these: in vivo. The format is ADME, organism-based.
Data set [8] can be described thus: Trough level in BALB/c mouse at 100 mg/kg, ip after 6 hrs. Format: ADME, organism-based. The conditions noted are these: in vivo.
Data set [9] is described as follows: AUC (0-6h) in BALB/c mouse at 25 mg/kg, ip. As to conditions: plasma. Format: ADME, organism-based.
A short description of data set [10]: AUC (0-6h) in BALB/c mouse at 100 mg/kg, ip. The format is ADME, organism-based. The conditions noted are these: plasma.
Data set [11] can be described thus: Cmax in BALB/c mouse at 50 mg/kg, ip. The format is ADME, organism-based. The conditions noted are these: in vivo.
For data set [12], the system named is Mus musculus. Kind of data set: Survival in BALB/c mouse infected with Bacillus anthracis Ames at 30 mg/kg, ip every 12 hrs for 14 days. The format is functional, organism-based. Details: dose 30 mg/kg.
Data set [13] deals with Mus musculus. The experiment in a line: Survival in BALB/c mouse infected with Bacillus anthracis Ames at 40 mg/kg every 6 hrs for 14 days. The format is functional, organism-based. Details: dose 40 mg/kg.

In brackets after ≈: the same amount, converted by molar mass. Activity calls are given as the source filed them. The rule behind the calls is not given here.

On to `O=C(O)c1cn(C2CC2)c2cc(N3CCNCC3)c(F)cc2c1=O` [CIPROFLOXACIN], for which the AUC(0-t) at 6 h stood at 14100 ng·h/mL in data set [1], 6600 ng·h/mL in [9] and 37700 ng·h/mL in [10]. The Cmax stood at 6600 ng/mL in data set [2], 20000 ng/mL in data set [3] and 10700 ng/mL in [11]. Moreover, the survival at 30 mg/kg with Mus musculus [4] and in the data set on Mus musculus [5] was 80% in each case. The concentration at 6 h in data set [6] worked out at 1000 ng/mL; in data set [7], 1830 ng/mL; in data set [8], 1670 ng/mL. In the data set on Bacillus anthracis, this molecule showed an MIC of 0.25 µg/mL (≈ 0.754 µM). Also, in the data set on Mus musculus [12], the outcome was Active.

Turning to `C[C@H]1c2cccc(O)c2C(=O)C2=C(O)[C@]3(O)C(=O)C(C(N)=O)=C(O)[C@@H](N(C)C)[C@@H]3[C@@H](O)[C@@H]21.O` [DOXYCYCLINE], the AUC(0-t) at 6 h in data set [1] is 23400 ng·h/mL; in data set [9], 13700 ng·h/mL; in data set [10], 57200 ng·h/mL. Further, the Cmax in data set [2] is 4000 ng/mL; in data set [3] it was 12000 ng/mL; in data set [11], 6700 ng/mL. Besides, the concentration at 6 h in [6] was 1330 ng/mL; in [7], 1670 ng/mL; in data set [8], 6000 ng/mL. The lowest concentration to inhibit growth against Bacillus anthracis (MIC) was 0.03 µg/mL. Also, in the data set on Mus musculus [13], the result was Active.

In general, AUC(0-t) refers to the area under the concentration-time curve up to a stated or last time point. The low end stands for low exposure, the high end for high exposure. One may read the Cmax as the highest concentration seen after dosing. In general, MIC refers to the lowest concentration found to suppress growth. The low end stands for greater potency, the high end for weaker potency.

The values above are taken from ChEMBL document CHEMBL1147119 (2007).
